In general, IC50 refers to the concentration that gives 50% inhibition. The inhibition is how much of the control response was suppressed. Lower therefore signals a weak effect.

One experiment deals with T1, hMAGL (Homo sapiens, UniProt Q99685).
T1 construct: expressed in transfected cells; host or cells: HEK293T
T1 sequence (Q99685 1-303): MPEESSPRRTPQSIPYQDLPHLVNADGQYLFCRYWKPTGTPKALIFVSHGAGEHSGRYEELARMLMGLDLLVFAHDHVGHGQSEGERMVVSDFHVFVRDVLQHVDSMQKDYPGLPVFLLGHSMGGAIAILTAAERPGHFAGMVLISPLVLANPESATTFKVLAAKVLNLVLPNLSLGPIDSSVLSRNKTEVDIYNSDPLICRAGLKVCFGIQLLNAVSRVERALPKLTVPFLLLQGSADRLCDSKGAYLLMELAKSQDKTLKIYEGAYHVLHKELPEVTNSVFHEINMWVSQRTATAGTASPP
In words: Competitive ABPP with human MAGL recombinantly expressed in HEK293T cells. The following applies: Table 1; hMAGL-HEK293T cell lysates. Format: biochemical. As for the experimental part:
(§1) Proteomes (mouse brain membrane fraction or cell lysates) (50 μL, 1.0 mg/ml total protein concentration) were preincubated with varying concentrations of inhibitors at 37° C. After 30 min, FP-Rh (1.0 μL, 50 μM in DMSO) was added and the mixture was incubated for another 30 min at 37° C. Reactions were quenched with SDS loading buffer (50 μL—4×) and run on SDS-PAGE.
Recombinant Expression of Human MAGL in HEK293T Cells.
Cell lysates were diluted with mock proteomes for use in competitive ABPP experiments.

Experiment [1] has as its target T2, MAGL (Mus musculus, UniProt O35678).
T2 sequence (O35678 1-303): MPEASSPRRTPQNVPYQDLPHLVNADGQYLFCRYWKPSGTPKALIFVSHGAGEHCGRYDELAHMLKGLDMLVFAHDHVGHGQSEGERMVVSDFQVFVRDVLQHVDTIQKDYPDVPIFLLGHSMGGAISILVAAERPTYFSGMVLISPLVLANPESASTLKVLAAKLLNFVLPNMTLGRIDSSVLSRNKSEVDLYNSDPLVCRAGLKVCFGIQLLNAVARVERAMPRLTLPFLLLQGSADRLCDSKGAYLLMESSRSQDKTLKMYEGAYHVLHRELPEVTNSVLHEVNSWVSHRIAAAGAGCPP
In words: Mouse brain MAGL inhibition in proteomes from inhibitor treated mice (oral gavage). Format: in vivo. On the set-up: from tissue; host or cells: mouse brain membrane fraction. The following applies: p.o., C57Bl/6J mice, brain proteome 4 h following administration. As to the method: as §1
Preparation of Mouse Brain Proteomes from Inhibitor Treated Mice.
Inhibitors were administered to wild-type C57B1/6J by oral gavage in a vehicle of polyethylene glycol.

Experiment [2] addresses T2, MAGL. In words: In vitro competitive activity-based protein profiling (FP-Rh), mouse MAGL. Format: biochemical. On the set-up: from tissue; host or cells: mouse brain membrane fraction. The following applies: 30 min preincubation at 37° C. As for the experimental part: (§2) In Vitro Competitive Activity-Based Protein Profiling.
as §1

The next experiment concerns the target T3, ABHD6 (Mus musculus, UniProt Q8R2Y0).
T3 sequence (Q8R2Y0 1-336): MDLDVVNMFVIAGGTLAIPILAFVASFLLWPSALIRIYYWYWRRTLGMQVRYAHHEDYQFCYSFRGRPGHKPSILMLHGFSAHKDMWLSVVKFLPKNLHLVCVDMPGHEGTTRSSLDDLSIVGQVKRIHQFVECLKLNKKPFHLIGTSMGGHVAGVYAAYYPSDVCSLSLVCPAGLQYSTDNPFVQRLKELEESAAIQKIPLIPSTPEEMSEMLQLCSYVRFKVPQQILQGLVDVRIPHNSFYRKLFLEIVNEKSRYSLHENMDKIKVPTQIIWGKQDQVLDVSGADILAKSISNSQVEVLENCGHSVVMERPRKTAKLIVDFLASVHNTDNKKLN
Put plainly: In vitro competitive activity-based protein profiling (FP-Rh), mouse ABHD6. Format: biochemical. The arrangement: from tissue; host or cells: mouse brain membrane fraction. As to conditions: 30 min preincubation at 37° C. As to the method:
as §2, §1

The next experiment deals with T4, FAAH (Mus musculus, UniProt O08914).
T4 sequence (O08914 1-579): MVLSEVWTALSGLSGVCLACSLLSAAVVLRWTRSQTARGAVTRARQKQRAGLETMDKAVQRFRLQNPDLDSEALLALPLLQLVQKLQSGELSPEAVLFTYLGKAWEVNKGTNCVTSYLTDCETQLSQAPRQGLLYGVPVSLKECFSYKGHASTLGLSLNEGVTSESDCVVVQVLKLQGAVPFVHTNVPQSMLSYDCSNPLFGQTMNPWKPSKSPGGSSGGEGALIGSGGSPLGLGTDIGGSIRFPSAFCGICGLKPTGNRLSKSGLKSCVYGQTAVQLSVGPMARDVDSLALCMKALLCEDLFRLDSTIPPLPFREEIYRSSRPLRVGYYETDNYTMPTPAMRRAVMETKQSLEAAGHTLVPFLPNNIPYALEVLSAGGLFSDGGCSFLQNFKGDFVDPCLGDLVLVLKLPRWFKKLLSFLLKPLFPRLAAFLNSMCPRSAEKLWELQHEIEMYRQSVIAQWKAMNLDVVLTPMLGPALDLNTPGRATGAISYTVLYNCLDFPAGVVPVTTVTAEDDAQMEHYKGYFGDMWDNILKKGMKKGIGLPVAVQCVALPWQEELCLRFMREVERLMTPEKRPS
In words: In vitro competitive activity-based protein profiling (FP-Rh), mouse FAAH. Format: biochemical. The arrangement: from tissue; host or cells: mouse brain membrane fraction. The following applies: 30 min preincubation at 37° C. As to the method: as §2, §1

As to `O=C(ON1C(=O)CCC1=O)N1CCC(C(O)(c2ccc3c(c2)OCO3)c2ccc3c(c2)OCO3)CC1` [Example 1, 2,5-Dioxopyrrolidin-1-yl 4-(bis(benzo[d][1,3]dioxol-5 yl)(hydroxy)methyl)piperidine-1-carboxylate], the IC50 on hMAGL is less than 100 nM; at MAGL [2] (Table 1, mouse proteome), less than 100 nM; at ABHD6 (Table 1, mouse proteome), 100 to 1000 nM; on FAAH (Table 1, mouse proteome), greater than 10000 nM. Moreover, testing at 20 mg/kg against MAGL [1] gave an inhibition of 75%.
For the molecule `O=C(ON1C(=O)CCC1=O)N1CCN(C(c2ccc(Br)cc2)c2ccc(Br)cc2)CC1` [Example 3, 2,5-Dioxopyrrolidin-1-yl 4-[bis(4-bromophenyl)methyl]piperazine-1-carboxylate], the IC50 on hMAGL was less than 100 nM; at MAGL [2] (Table 1, mouse proteome), less than 100 nM; on ABHD6 (Table 1, mouse proteome), 100 to 1000 nM; on FAAH (Table 1, mouse proteome), greater than 10000 nM. Besides, the inhibition at 20 mg/kg against MAGL [1] was greater than 95%.
Consider `CC1CC(=O)N(OC(=O)N2CCN(C(c3ccc(Cl)cc3)c3ccc(Cl)cc3)CC2)C1=O` (centres unmarked) [Example 41, 3-Methyl-2,5-dioxopyrrolidin-1-yl 4-(bis(4-chlorophenyl)methyl)piperazine-1-carboxylate], for which, at MAGL [1], the inhibition at 20 mg/kg is greater than 95%. The IC50 at MAGL [2] (Table 1, mouse proteome) is less than 100 nM; at ABHD6 (Table 1, mouse proteome), 100 to 1000 nM; at FAAH (Table 1, mouse proteome), greater than 10000 nM.
The like results for `O=C(ON1C(=O)CNC1=O)N1CCN(C(c2ccc(Cl)cc2)c2ccc(Cl)cc2)CC1` [Example 46, 2,5-Dioxoimidazolidin-1-yl 4-(bis(4-chlorophenyl)methyl)piperazine-1-carboxylate] were, in that order, greater than 95%, less than 100 nM, 100 to 1000 nM and greater than 10000 nM.
`O=C(ON1C(=O)CCC1=O)N1CCN(Cc2ccc(C(F)(F)F)cc2N2CCCC2)CC1` [Example 105, 2,5-Dioxopyrrolidin-1-yl 4-{[2-(pyrrolidin-1-yl)-4-(trifluoromethyl)phenyl]methyl}piperazine-1-carboxylate]: the inhibition at 5 mg/kg at MAGL [1] stood at 75%. Besides, the concentration for half-maximal inhibition (IC50) was less than 100 nM at MAGL [2] (Table 2, mouse proteome); 1000 to 10000 nM at ABHD6 (Table 2, mouse proteome); greater than 10000 nM on FAAH (Table 2, mouse proteome).
In turn, `Cc1c(CN2CCN(C(=O)ON3C(=O)CCC3=O)CC2)cccc1N1CCCCC1` [Example 122, 2,5-Dioxopyrrolidin-1-yl 4-(2-methyl-3-(piperidin-1-yl)benzyl)piperazine-1-carboxylate] gave an inhibition at 5 mg/kg against MAGL [1] of 100%. The IC50 on MAGL [2] (Table 2, mouse proteome) is less than 100 nM; at ABHD6 (Table 2, mouse proteome), 100 to 1000 nM; at FAAH (Table 2, mouse proteome), greater than 10000 nM.

These data come from patent publication US9567302B2, “Carbamate compounds and of making and using same” (Abide Therapeutics, Inc., priority 2012, dated 2017).
